Measurements reported in patent US20250011311A1, “AMIDO HETEROAROMATIC COMPOUNDS” (AstraZeneca AB, priority 2022, published 2025).
Read-outs that look alike come from different tables or passages of the source.

How the values were obtained:
[1] = target: recombinant 17bHSD13 (N2-K300) (Homo sapiens (Human), UniProt Q7Z5P4); assay: In Vitro 17bHSD13 Enzyme Assay; type: biochemical; details: 80 nM 17bHSD13, 0.5 mM NAD, 20 μM Estradiol, 2.5 h; estradiol to estrone by LC-MS/MS
In short: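 Human 17bHSD13 (N2-K300, 80 nM) with 0.5 mM NAD, 20 μM estradiol and varied compound in 50 mM Tris-Cl pH 7.4, 5 mM EDTA, 0.01% DDM. Estrone/(estrone+estradiol) ratio read by LC-MS/MS (APCI, positive MRM). Inhibition normalised to DMSO and a known-inhibitor control; IC50 from curve fit.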

CYP2C9 = CYP2C9 (Homo sapiens (Human), UniProt P11712); assay: Assay B: Cytochrome P450 Inhibition 2C9
[2] = target: over expressed HSD17β9 in HEK293S cells (Homo sapiens (Human), UniProt Q92781); assay: In Vitro 17bHSD9 Cell Assay; type: cell-based
In short: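 HEK293S cells overexpressing HSD17β9 were plated at 10K cells/well in DMEM + 10% FBS and cultured 18 h. Retinol-to-retinal conversion in media was quantified by LC-MS/MS (MRM) as retinal/(retinal + retinol). IC50 was fitted after normalisation to DMSO and full inhibition by a reference inhibitor.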

[3] = target: over expressed HSD17β13 in HEK293S cells (Homo sapiens (Human), UniProt Q7Z5P4); assay: In Vitro 17bHSD13 Cell Assay; type: cell-based
In short: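 HEK293S cells overexpressing HSD17β13 convert estradiol to estrone; product read by LC-MS/MS (APCI, positive MRM) as AUC ratio estrone/(estrone+estradiol). Effect normalised between DMSO and maximal inhibition by a known inhibitor control; IC50 from curve fit.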

human hepatocytes = assay: Assay A: Metabolic Stability in Human Hepatocytes; type: in vitro ADME; details: cryopreserved human hepatocytes, 10^6 viable cells/mL, 1 μM compound, 37° C.
Description: Assay A: Metabolic Stability in Human Hepatocytes
Hepatocyte metabolic stability was determined in accordance with the method described by Jacobson et al., An optimized automated assay for determination of metabolic stability using hepatocytes: assay validation, variance component analysis, and in vivo relevance. Assay Drug Dev Technol 2007, 5 (3), 403-415. DOI: 10.1089/adt.2007.059, which is incorporated herein by reference. Cryopreserved hepatocytes at a concentration of 10^6 viable cells/mL were used. After thawing, hepatocytes were incubated for 10 min to warm to 37° C. and test compounds, dissolved in acetonitrile, were added to give a final concentration of 1 μM. At 0.5, 5, 15, 30, 45, 60, 80, 100 and 120 min, the incubation system was mixed and 20 μL aliquots were transferred at each time point to wells in a separate plate filled with 80 μL MeCN to stop the reaction. The quenching plate was then vortexed followed by centrifugation, and supernatants were analyzed by LC-MS/MS. Peak areas were determined from extracted ion chromatograms, and the in vitro intrinsic clearance (in vitro CLint, in μL/min/10^6 cells) of parent compound was calculated from the slope in the regression analysis of the natural logarithm of parent concentration vs time curve.

[4] = target: recombinant 17bHSD4 (M1-N311) (Homo sapiens (Human), UniProt P51659); assay: In Vitro 17bHSD4 Enzyme Assay; type: biochemical; details: 40 nM 17bHSD4, 0.125 mM NAD, 15 μM Estradiol, 1.5 h; NADH fluorescence; read-out: 17HSD17b4 Enzyme assay IC50
[5] = target: human CB1 receptor expressed in transfected CHO cells (Homo sapiens (Human), UniProt P21554); assay: Assay C: CB1 Agonism Assay; type: cell-based; details: agonist activity, cAMP HTRF, read-out: Assay C: CB1 Hu CHO cAMP TRF Ag CR GMean EC50
Description: Assay C: CB1 Agonism Assay
Evaluation of the agonist activity of compounds at the human CB1 receptor expressed in transfected CHO cells, determined by measuring their effects on cAMP modulation using the HTRF detection method.
Thereafter, the adenylyl cyclase activator NKH 477 is added at a final concentration of 3 μM. Following 20 min incubation at 37° C., the cells are lysed and the fluorescence acceptor (D2-labeled cAMP) and fluorescence donor (anti-cAMP antibody labeled with europium cryptate) are added. After 60 min at room temperature, the fluorescence transfer is measured at gex=337 nm and gem=620 and 665 nm using a microplate reader (RUBYSTAR, BMG). The cAMP concentration is determined by dividing the signal measured at 665 nm by that measured at 620 nm (ratio). The results are expressed as a percent of the control response to 30 nM CP 55940. The standard reference agonist is CP 55940, which is tested in each experiment at several concentrations to generate a concentration-response curve from which its EC50 value is calculated.
Bibliographic reference Felder, C. C. et al., (1995), Comparison of the pharmacology and signal transduction of the human cannabinoid CB1 and CB2 receptors, Mol. Pharmacol., 48: 443, which is incorporated herein by reference.

[6] = HEK293S cells over expressing HSD17β13, estradiol to estrone conversion, 18 h, LC-MS/MS, read-out: 17bHSD1713 Cell assay IC50

over expressed HSD17β13 in HEK293S cells, sequence (Q7Z5P4 20-300): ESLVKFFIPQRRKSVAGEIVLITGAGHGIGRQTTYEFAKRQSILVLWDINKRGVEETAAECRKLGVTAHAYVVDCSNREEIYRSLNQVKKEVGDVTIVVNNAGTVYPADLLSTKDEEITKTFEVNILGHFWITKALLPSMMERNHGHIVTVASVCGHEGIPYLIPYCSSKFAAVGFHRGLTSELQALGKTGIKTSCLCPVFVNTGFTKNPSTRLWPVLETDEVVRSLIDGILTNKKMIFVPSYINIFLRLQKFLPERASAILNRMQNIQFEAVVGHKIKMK
CYP2C9, sequence (P11712 whole entry): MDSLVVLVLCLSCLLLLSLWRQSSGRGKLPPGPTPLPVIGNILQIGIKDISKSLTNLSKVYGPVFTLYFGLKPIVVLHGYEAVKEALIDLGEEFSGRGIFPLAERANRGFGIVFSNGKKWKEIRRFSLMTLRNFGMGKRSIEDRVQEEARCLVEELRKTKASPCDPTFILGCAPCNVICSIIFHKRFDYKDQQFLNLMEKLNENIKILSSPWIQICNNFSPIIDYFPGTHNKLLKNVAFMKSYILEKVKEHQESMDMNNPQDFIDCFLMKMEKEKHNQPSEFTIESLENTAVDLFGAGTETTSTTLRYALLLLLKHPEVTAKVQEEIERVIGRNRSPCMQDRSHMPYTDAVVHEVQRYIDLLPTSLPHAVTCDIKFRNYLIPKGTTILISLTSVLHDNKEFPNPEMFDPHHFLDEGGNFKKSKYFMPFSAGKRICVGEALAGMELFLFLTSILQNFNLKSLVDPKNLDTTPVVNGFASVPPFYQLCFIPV
recombinant 17bHSD13 (N2-K300), sequence (Q7Z5P4 2-300): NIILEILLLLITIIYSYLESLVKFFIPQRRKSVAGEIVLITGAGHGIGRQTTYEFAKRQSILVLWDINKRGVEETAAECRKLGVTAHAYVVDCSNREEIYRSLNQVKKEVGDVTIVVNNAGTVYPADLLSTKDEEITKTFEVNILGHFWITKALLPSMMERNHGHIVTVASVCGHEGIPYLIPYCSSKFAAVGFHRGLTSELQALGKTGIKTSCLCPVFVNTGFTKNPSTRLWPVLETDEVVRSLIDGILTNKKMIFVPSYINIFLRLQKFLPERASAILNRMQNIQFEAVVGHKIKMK
recombinant 17bHSD4 (M1-N311), sequence (P51659 1-311): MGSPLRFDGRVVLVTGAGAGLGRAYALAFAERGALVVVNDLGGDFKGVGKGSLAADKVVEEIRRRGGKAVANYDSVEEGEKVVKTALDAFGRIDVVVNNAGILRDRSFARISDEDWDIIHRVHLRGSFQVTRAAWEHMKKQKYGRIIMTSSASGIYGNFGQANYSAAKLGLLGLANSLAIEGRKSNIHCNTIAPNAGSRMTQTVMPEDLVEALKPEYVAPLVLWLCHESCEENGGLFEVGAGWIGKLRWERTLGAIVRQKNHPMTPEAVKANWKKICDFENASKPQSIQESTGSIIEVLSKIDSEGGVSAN
over expressed HSD17β9 in HEK293S cells, sequence (Q92781 whole entry): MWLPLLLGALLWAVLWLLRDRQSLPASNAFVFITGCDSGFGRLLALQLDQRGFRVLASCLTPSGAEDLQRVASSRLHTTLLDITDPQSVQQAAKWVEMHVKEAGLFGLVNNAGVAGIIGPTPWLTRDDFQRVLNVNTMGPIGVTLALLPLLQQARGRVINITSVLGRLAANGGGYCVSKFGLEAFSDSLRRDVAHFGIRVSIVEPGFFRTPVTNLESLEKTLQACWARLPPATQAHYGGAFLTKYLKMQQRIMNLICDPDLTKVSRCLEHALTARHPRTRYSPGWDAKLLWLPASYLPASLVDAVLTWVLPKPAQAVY
human CB1 receptor expressed in transfected CHO cells, sequence (P21554 whole entry): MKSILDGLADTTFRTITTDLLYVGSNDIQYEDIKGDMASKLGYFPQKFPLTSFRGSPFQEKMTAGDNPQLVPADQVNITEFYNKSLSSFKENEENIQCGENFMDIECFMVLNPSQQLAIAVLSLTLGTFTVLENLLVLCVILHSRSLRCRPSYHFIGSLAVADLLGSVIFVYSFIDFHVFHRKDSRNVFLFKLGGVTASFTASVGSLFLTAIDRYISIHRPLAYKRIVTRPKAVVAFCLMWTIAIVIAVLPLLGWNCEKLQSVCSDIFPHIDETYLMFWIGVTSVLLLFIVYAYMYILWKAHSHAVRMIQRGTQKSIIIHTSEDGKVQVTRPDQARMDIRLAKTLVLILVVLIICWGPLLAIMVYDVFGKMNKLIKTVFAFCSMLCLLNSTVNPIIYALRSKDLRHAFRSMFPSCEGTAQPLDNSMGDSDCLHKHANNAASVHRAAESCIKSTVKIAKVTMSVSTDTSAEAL

N#CC1(c2ccccc2)CCN(C(=O)c2noc(-c3cc(F)c(F)c(O)c3F)n2)CC1 [Example 80, 4-Phenyl-1-(5-(2,4,5-trifluoro-3-hydroxyphenyl)-1,2,4-oxadiazole-3-carbonyl)piperidine-4-carbonitrile]
IC50 [1]: 111 nM
IC50 (CYP2C9): 3.3 µM
IC50 [2]: 8.2 µM
IC50 [3]: 460 nM
Assay A: Human Heps Met Clint GMean CLint (μl/min/1E6) (human hepatocytes): 9.8 μl/min/1E6
IC50 [4]: 21.9 µM

N#Cc1ccc(N2CCN(C(=O)c3noc(-c4cc(F)c(F)c(O)c4F)n3)CC2)cc1 [Example 83, 4-(4-(5-(2,4,5-Trifluoro-3-hydroxyphenyl)-1,2,4-oxadiazole-3-carbonyl)piperazin-1-yl)benzonitrile]
IC50 [1]: 102 nM
IC50 (CYP2C9): 6.2 µM
IC50 [3, 6]: 2880 nM
Assay A: Human Heps Met Clint GMean CLint (μl/min/1E6) (human hepatocytes): 11.8 μl/min/1E6
IC50 [4]: 14.4 µM

N#Cc1cccc(C2CN(C(=O)c3noc(-c4cc(F)c(F)c(O)c4F)n3)C2)c1 [Example 85, 3-(1-(5-(2,4,5-Trifluoro-3-hydroxyphenyl)-1,2,4-oxadiazole-3-carbonyl)azetidin-3-yl)benzonitrile]
IC50 [1]: 317 nM
IC50 (CYP2C9): 3.4 µM
IC50 [3, 6]: 3380 nM
Assay A: Human Heps Met Clint GMean CLint (μl/min/1E6) (human hepatocytes): 14.1 μl/min/1E6
EC50 [5]: 9.3 µM
IC50 [4]: 21.7 µM

O=C(c1nnc(-c2ccc(F)c(O)c2)o1)N1CCOC2(CCC2)C1 [Example 90, (5-(4-Fluoro-3-hydroxyphenyl)-1,3,4-oxadiazol-2-yl)(5-oxa-8-azaspiro[3.5]nonan-8-yl)methanone]
IC50 [1]: 626 nM
IC50 (CYP2C9): > 30 µM
IC50 [3, 6]: 1690 nM
Assay A: Human Heps Met Clint GMean CLint (μl/min/1E6) (human hepatocytes): >300 μl/min/1E6
IC50 [4]: > 50 µM

O=C(c1noc(-c2cc(F)c(F)c(O)c2F)n1)N1CCC(OCc2ccccc2)C1 (stereo not drawn) [Example 97, (3-(Benzyloxy)pyrrolidin-1-yl)(5-(2,4,5-trifluoro-3-hydroxyphenyl)-1,2,4-oxadiazol-3-yl)methanone]
IC50 [1]: 122 nM
IC50 (CYP2C9): 1.8 µM
IC50 [3, 6]: 890 nM
Assay A: Human Heps Met Clint GMean CLint (μl/min/1E6) (human hepatocytes): 46.6 μl/min/1E6
IC50 [4]: 26.2 µM
